Series [1] is described as follows: Octanol–water partition, shake-flask method. The class given is physicochemical. As to conditions: 200 μM, n-octanol/water, 2 h mixing, SE in parentheses; for logP at 2 h: read-out: log P (log10KOW). As to the method:
The shake-flask method was done using 2 mL Eppendorf tubes and three replicates. […] After mixing, aliquots of 500 μL were transferred to new Eppendorf tubes, and 500 μL of n-octanol was added that had been saturated with water. The solvent systems were mixed in a vortex mixer for 2 h, and then both the water and the n-octanol layers as well as the initial water solution were analyzed by UPLC–DAD using the shorter phenyl column (section 2.4). The chromatograms were integrated using TargetLynx software (version 4.2), and the octanol–water partition coefficient, log P, was calculated as the log10 of the ratio of area in n-octanol phase to the area in water phase. Recovery % was calculated by summing the areas in both phases and dividing the summation with the area measured from the initial water phase.

Series [2] in a line: Stability in phosphate buffered saline. It counts as physicochemical. As to conditions: phosphate buffered saline, pH 7.4, PBS pH 7.4, 0.01 M phosphate, 150 μM, first-order kinetics, UV 280 nm; read-out: half-life (t1/2). As to the method:
The stabilities of the compounds were measured in PBS, which was prepared from commercially available tablets that were dissolved in ultrapure water. The phosphate concentration was 0.01 M, the pH was 7.4, and the potassium and sodium chloride concentrations were 0.0027 and 0.137 M, respectively. […] The compounds were dissolved in 2 mL of the PBS solution in Eppendorf tubes, vortexed for approximately 15 min, and filtered through a 0.2 μm PTFE filter to a 2 mL UPLC vial. The solutions were analyzed with the UPLC-DAD-HESI-Orbitrap-MS instrument using the longer phenyl column (section 2.4), and repeated injections were done every 47.5 min for approximately 12 h. […] The UV chromatograms at 280 nm were integrated using the QuanBrowser module in Xcalibur software (version 4.1.31.9), and the main degradation products were identified in QualBrowser by their high-resolution mass spectra and UV spectra. With each compound, the measured areas were transformed to proportional areas by dividing all areas with the initial area in the first injection of the time series, and the data was further loge transformed and fitted with first-order linear regression curves. The regression curves were supplemented with 95% confidence intervals to visualize the uncertainty in the fitted curves. The half-lives were calculated from the slope (k) parameters of the linear regression model using the following equation: [drawing 1]

Series [3] deals with T1, bovine serum albumin (BSA) (Bos taurus, UniProt P02769).
T1 construct: purchased Sigma-Aldrich (MO, USA)
T1 sequence (P02769 25-607): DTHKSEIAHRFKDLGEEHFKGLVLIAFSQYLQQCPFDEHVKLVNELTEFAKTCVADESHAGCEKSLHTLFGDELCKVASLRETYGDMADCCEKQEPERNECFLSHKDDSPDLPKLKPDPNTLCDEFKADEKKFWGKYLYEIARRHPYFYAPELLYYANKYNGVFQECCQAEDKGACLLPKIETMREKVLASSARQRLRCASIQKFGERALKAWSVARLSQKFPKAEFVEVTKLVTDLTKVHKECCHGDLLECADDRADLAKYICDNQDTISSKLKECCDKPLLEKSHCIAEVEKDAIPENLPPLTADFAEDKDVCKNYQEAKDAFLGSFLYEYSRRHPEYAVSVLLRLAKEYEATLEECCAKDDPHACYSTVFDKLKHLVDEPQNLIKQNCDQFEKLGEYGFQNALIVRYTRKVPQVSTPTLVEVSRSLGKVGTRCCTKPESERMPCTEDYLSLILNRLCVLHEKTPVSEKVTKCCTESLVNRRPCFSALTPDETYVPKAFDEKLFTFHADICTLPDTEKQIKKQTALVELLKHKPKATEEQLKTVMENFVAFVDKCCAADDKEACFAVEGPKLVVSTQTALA
The experiment in a line: UPLC–DAD analysis of supernatants from the PPC experiment (proportion of precipitated BSA). As to conditions: for proportion of BSA precipitated: highest tested concentration of 2.25 mM (molar ratio to BSA 23:1). It counts as biochemical. How it is done:
(§1) PPC was measured by using the turbidimetric well-plate reader assay of Engström et al. (2019), with few modifications to the volumes of the reactants and to the number of replicates, for instance. The analyzes of the supernatants were done following Engström et al. (2022).[21] Briefly, 75 μL of BSA solution and 75 μL of the solutions of compounds 2–14 were pipetted to well plates, and the intensity of the forming haze was measured periodically at 420 nm using a well-plate reader. The PPC of the PC analogue 1 was not measured because it was not soluble in suitable solvents. The reactions were monitored for 30 min, and the highest intensities were recorded. A single background measurement was done at each concentration with all the components in the wells but the BSA. The reactions were done in triplicates (and in duplicates with PC C1), and the concentrations of the compounds 2–14 in the reaction mixtures were 0.25 0.65, 1.05, 1.45, 1.85, and 2.25 mM. The concentration of the BSA was kept constant at 0.1 mM. Therefore, the tested molar ratios to BSA were 2.5:1, 6.5:1, 10.5:1, 14.5:1, 18.5:1, and 22.5:1. After the 30 min, the supernatants and precipitates of the replicates were combined in a 1.5 mL Eppendorf tube and separated by centrifuging. The supernatants were then analyzed by UPLC–DAD using the shorter phenyl column (section 2.4) to quantify the leftover compounds 2–14 and BSA. Leftover BSA was quantified using a separately prepared linear calibration curve (1–125 μM), and the compounds 2–14 were quantified by analyzing the background solutions from the well-plate reader assay and constructing a calibration curve from these analyzes. BSA was quantified at 280 nm and compounds 2–14 at 280–320 nm. The wavelength of maximal UV absorption for compounds 2–14 could not be utilized in quantification because the diode array detector was saturated at the optimal wavelengths due to the high concentrations used in the well-plate reader assay. Therefore, off-optimal wavelengths were chosen for quantification separately for each compound 2–14 to reduce intensities and to obtain linear fits for calibration curves.

The target in series [4] is T1, bovine serum albumin (BSA). In words: Protein precipitation capacity (PPC), turbidimetric well-plate reader assay with BSA, log-normal dose–response model. The class given is biochemical. The conditions noted are these: SE in parentheses; for ED90 (mM) / EC50: BSA 0.1 mM; for EC50: concentration giving 50% of maximal absorbance (420 nm haze), read-out: ED50 (the source's name); for slope: slope parameter of log-normal dose–response model. How it is done: as §1
All statistical analyzed were performed with R (version 4.2.2) in the integrated development environment Rstudio (version 2022.12.0.353).[23],[24] The PPC data was fitted with a dose–response model using the package drc.[25] Various models, e.g., logit and log-normal models, were compared using the mselect function, and the best fitting model was chosen based on the Akaike’s information criterion and residual error when comparing all models, and log-likelihood was used when comparing nested models. All compounds were assumed to have the same upper and lower asymptotes; the former was estimated from the experimental data, and the latter was fixed at zero.

From publication PMC10722540, “Red Wine Inspired Chemistry: Hemisynthesis of Procyanidin Analogs and Determination of Their Protein Precipitation Capacity, Octanol–Water Partition, and Stability in Phosphate-Buffered Saline” (Journal of Agricultural and Food Chemistry, 2023) come the findings set out here.

Turning to `Oc1cc(O)c2c(c1)O[C@H](c1ccc(O)c(O)c1)[C@H](O)[C@H]2c1c(O)cc(O)c2c1O[C@H](c1ccc(O)c(O)c1)[C@H](O)C2` [Compound 12, PC B2, reference compound], in series [1], the KOW is 0.13 (0.00) and the logP at 2 h is -0.87. The half-life at 150 μM in series [2] came to 11.6 h. Besides, in series [3], the “activity based on the proportions of precipitated BSA (in words)” value is “practically inactive”.
Consider `Oc1cc(O)c2c(c1)O[C@H](c1ccc(O)c(O)c1)[C@H](O)[C@H]2c1c(O)cc(O)c2c1O[C@H](c1ccc(O)c(O)c1)[C@H](O)[C@H]2c1c(O)cc(O)c2c1O[C@H](c1ccc(O)c(O)c1)[C@H](O)C2` [Compound 13, PC C1, reference compound], for which, in series [4], the “ED90 (mM)” value is 1.57 (0.06) mM, the EC50 worked out at 770 µM and the slope is 1.79 (0.08). Moreover, in series [1], the KOW is 0.07 (0.00) and the logP at 2 h was -1.17. Also, in series [2], the half-life at 150 μM turned out to be 30.9 h. In series [3], the “proportion of BSA precipitated” value was “almost all”.
For the molecule `O=C(O[C@@H]1Cc2c(O)cc(O)cc2O[C@@H]1c1cc(O)c(O)c(O)c1)c1cc(O)c(O)c(O)c1` [Compound 14, Epigallocatechin-3-gallate, reference compound], in series [4], the “ED90 (mM)” value is 1.76 (0.06) mM, the EC50 was 890 µM and the slope is listed as 1.88 (0.07). In series [1], the KOW is 13.58 (0.06) and the logP at 2 h was determined as 1.13. In series [2], the half-life at 150 μM came to 1.4 h. Moreover, the “proportion of BSA precipitated” value in series [3] is on record as “almost all”.
